From ChEMBL document CHEMBL1777713, “Ketonethiosemicarbazones: structure-activity relationships for their melanogenesis inhibition” (Bioorg Med Chem Lett, 2011)

Tests used:
[1] = test system: B16; assay: Inhibition of alpha-MSH-induced melanin production in mouse B16 cells after 3 days; format: functional, cell-based; conditions: B16, 72 h
[2] = test system: B16; assay: Inhibition of alpha-MSH-induced melanin production in mouse B16 cells at 10 uM after 3 days; format: functional; conditions: B16, 72 h

SMILES	IC50 [1] [nM]	inhibition at 10 µM [2] [%]
C/C(=N\NC(N)=S)c1cccs1	6100	82
CC/C(=N\NC(=S)Nc1ccccc1)c1ccc(C)cc1	790	> 100
CCNC(=S)N/N=C(\CC)c1ccc(C)cc1	1900	> 100
CCC(NNC(N)=S)c1ccc(C)cc1 (centres undefined)	3900	> 100
C/C(=N\NC(N)=S)c1ccc(C)cc1	840	> 100
NC(=S)N/N=C1\CCCc2ccccc21	2300	> 100
CC/C(=N\N=C(\N)S)c1ccc(Cl)cc1	2900	> 100
NC(=S)NN=C(c1ccccc1)c1ccccc1 [BENZOPHENONE-THIOSEMICARBAZONE]	4900	97
C/C(=N\N=C(/N)S)c1ccccc1 [PHENYL(METHYL)THIOSEMICARBAZONE]	2300	> 100
CC/C(=N\N=C(\N)S)c1ccc(OC)cc1	4000	> 100
CC/C(=N\NC(N)=S)c1ccc(C)cc1	2600	> 100
COc1ccc(/C(C)=N/NC(N)=S)cc1	2700	> 100
Cc1ccc(C(C)NNC(N)=S)cc1 (centres undefined)	8100	61
CC(C)/C(=N\NC(N)=S)c1ccccc1	3700	96
CC/C(=N\N=C(\N)S)c1ccc(Br)cc1	2000	> 100
CC(NNC(N)=S)c1ccccc1 (centres undefined)	> 30000	36
CC/C(=N\NC(=S)NC)c1ccc(C)cc1	2000	> 100
